Test results: ChEMBL document CHEMBL4619804, “Target-Based Identification and Optimization of 5-Indazol-5-yl Pyridones as Toll-like Receptor 7 and 8 Antagonists Using a Biochemical TLR8 Antagonist Competition Assay” (J Med Chem, 2020)

How the values were obtained:
[1] = biological target: T1, Toll-like receptor 7 (Mus musculus, UniProt P58681); experiment: Antagonist activity at TLR7 in mouse whole blood assessed as inhibition of DOTAP-ssRNA40 induced IFNalpha production preincubated for 30 mins followed by ssRNA40 addition measured after 20 hrs by ELISA; assay type: tissue-based
T1 sequence (P58681 whole entry): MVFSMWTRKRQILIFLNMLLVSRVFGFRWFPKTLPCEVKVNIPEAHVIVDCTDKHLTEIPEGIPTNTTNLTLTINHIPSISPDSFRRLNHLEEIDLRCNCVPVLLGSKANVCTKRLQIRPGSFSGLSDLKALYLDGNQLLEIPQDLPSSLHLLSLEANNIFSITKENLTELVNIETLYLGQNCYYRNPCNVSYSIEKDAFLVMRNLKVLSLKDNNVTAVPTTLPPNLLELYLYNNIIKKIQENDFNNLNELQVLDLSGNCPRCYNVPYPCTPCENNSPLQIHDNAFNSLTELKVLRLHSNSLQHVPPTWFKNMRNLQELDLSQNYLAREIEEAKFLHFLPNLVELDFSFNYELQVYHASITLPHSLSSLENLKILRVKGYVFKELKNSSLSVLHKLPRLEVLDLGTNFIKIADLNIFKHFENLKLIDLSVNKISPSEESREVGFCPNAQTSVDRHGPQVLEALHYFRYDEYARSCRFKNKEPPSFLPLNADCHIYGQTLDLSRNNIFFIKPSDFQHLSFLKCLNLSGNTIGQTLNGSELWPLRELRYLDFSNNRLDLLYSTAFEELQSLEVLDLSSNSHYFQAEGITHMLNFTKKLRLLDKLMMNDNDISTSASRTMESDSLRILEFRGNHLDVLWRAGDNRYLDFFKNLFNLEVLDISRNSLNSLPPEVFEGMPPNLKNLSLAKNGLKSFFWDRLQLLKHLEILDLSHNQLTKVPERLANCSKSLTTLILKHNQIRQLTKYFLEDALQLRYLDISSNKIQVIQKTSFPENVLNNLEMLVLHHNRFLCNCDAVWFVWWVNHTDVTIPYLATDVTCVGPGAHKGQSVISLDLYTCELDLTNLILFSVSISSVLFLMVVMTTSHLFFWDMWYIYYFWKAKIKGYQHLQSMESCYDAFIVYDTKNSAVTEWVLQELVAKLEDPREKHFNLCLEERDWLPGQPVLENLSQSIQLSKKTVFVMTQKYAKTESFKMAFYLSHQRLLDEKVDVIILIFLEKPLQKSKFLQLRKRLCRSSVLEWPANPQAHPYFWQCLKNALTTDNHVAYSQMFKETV

[2] = biological target: T2, Toll-like receptor 9 (Mus musculus, UniProt Q9EQU3); experiment: Antagonist activity at TLR9 in mouse whole blood inhibition of DOTAP-ODN2216-induced IFNalpha production preincubated for 30 mins followed by DOTAP-ODN2216 addition and measured after 20 hrs by ELISA; assay type: tissue-based
T2 sequence (Q9EQU3 whole entry): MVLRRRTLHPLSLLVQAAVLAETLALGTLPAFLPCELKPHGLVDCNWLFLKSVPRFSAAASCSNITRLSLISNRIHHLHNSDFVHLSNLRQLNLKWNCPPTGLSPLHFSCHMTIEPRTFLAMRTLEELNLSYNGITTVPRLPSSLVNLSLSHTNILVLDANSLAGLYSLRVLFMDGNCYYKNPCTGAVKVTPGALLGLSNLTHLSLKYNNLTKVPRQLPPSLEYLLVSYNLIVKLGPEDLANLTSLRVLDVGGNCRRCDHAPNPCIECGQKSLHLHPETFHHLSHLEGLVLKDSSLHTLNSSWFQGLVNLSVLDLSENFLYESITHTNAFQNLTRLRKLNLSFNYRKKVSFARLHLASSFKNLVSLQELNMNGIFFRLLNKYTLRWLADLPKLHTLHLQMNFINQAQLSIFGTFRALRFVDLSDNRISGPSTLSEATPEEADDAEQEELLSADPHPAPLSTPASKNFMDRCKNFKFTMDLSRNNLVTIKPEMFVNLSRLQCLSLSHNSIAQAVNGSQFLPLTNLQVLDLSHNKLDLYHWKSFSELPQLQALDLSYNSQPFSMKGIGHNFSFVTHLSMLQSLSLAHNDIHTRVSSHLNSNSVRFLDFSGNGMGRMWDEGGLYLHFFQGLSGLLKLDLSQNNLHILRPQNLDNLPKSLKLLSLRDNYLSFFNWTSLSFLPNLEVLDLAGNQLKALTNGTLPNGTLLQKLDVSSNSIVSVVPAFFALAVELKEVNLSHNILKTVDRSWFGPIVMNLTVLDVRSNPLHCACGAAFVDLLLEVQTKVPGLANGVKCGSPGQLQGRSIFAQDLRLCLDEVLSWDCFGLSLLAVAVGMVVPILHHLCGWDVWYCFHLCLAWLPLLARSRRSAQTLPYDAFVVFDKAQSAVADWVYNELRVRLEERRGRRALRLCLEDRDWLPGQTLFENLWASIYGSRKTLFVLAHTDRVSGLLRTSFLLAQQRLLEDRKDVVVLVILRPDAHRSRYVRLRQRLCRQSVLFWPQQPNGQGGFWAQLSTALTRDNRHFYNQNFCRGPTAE

Q: `O=c1ccc(-c2cc(C(F)(F)F)c3nn([C@H]4CCNC[C@@H]4F)cc3c2)c2n1CCC2` was tested. Which IC50 [1] did it give?
A: Its IC50 is 180 nM.

Q: And the IC50 [2]?
A: The IC50 was over 10000 nM.
